Source: US5210193A, “Piperazine derivatives” (American Cyanamid Company, priority 1990, dated 1993)
In brackets after ≈: the same amount, converted by molar mass.

Assays:
Assay in all cases: in vitro antibacterial MIC, agar plate dilution
Assay type in all cases: cell-based
[1] = system: Enterobacter aerogenes VGH 84-36; conditions: Klebsiella aerogenes, VGH8436, 18 hours, 35° C., read-out: MIC
In short: (§1)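 Minimal inhibitory concentrations came from agar plate dilution in Mueller-Hinton medium. Each organism was delivered at roughly 10^4 CFU by Steers replicator. Plates were read for visible growth after 18 hours at 35° C, values in mcg/ml.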

[2] = system: Enterobacter cloacae K 84-10; conditions: Enterobacter cloacae, K8410, 18 h, 35° C., read-out: MIC
In short: as §1

[3] = system: Enterobacter cloacae VGH 84-37; conditions: Enterobacter cloacae, VGH8437, 18 h, 35° C., read-out: MIC
In short: as §1

[4] = system: Escherichia coli ATCC 25922; conditions: Escherichia coli, ATCC25922, 18 h, 35° C., read-out: MIC
In short: as §1

[5] = system: Escherichia coli CMC 84-11; conditions: Escherichia coli, CMC8411, 18 h, 35° C., read-out: MIC
In short: as §1

[6] = system: Escherichia coli CMC 84-16; conditions: Escherichia coli, CMC8416, 18 h, 35° C., read-out: MIC
In short: as §1

Escherichia coli NAR 311 = conditions: NAR311, 18 hours, 35° C., read-out: MIC
In short: as §1

[7] = system: Escherichia coli PRNT 311; conditions: PRNT311, 18 hours, 35° C., read-out: MIC
In short: as §1

[8] = system: Klebsiella oxytoca MOR 84-28; conditions: MOR8428, 18 hours, 35° C.
In short: as §1

Klebsiella pneumoniae AD = conditions: Klebsiella pneumoniae, 18 h, 35° C., read-out: MIC
In short: as §1

[9] = system: Klebsiella pneumoniae MOR 84-4; conditions: Klebsiella pneumoniae, MOR844, 18 h, 35° C., read-out: MIC
In short: as §1

[10] = system: Morganella morganii CMC 84-37; conditions: Morganella morganii, CMC8437, 18 h, 35° C., read-out: MIC
In short: as §1

[11] = system: Morganella morganii VGH 84-11; conditions: VGH8411, 18 hours, 35° C., read-out: MIC
In short: as §1

[12] = system: Proteus rettgeri CMC 84-41; conditions: Providencia rettgeri, CMC8441, 18 h, 35° C., read-out: MIC
In short: as §1

[13] = system: Pseudomonas aeruginosa LL-1244; conditions: Pseudomonas aeruginosa, LL1244, 18 h, 35° C., read-out: MIC
In short: as §1

[14] = system: Pseudomonas aeruginosa VGH 84-4; conditions: Pseudomonas aeruginosa, VGH844, 18 h, 35° C., read-out: MIC
In short: as §1

[15] = system: Serratia marcescens F 0-35; conditions: Serratia marcescens, F035, 18 h, 35° C., read-out: MIC
In short: as §1

[16] = system: Serratia marcescens K 84-18; conditions: Serratia marcescens, K8418, 18 h, 35° C., read-out: MIC
In short: as §1

[17] = system: Staphylococcus Spp saprophiticus VGH 84-50; conditions: 18 hours, 35° C., read-out: MIC
In short: as §1

[18] = system: Staphylococcus aureus ATCC 25913; conditions: ATCC25913, 18 hours, 35° C.
In short: as §1

[19] = system: Staphylococcus aureus ATTC 29213; conditions: Staphylococcus aureus, ATTC29213, 18 h, 35° C., read-out: MIC
In short: as §1

[20] = system: Staphylococcus aureus CMC 83-127; conditions: Staphylococcus aureus, CMC83127, 18 h, 35° C., read-out: MIC
In short: as §1

[21] = system: Staphylococcus aureus CMC 83-128; conditions: CMC83128, 18 hours, 35° C., read-out: MIC
In short: as §1

[22] = system: Staphylococcus aureus Smith; conditions: Staphylococcus aureus, 18 h, 35° C., read-out: MIC
In short: as §1

[23] = system: Staphylococcus aureus VGH 84-45; conditions: Staphylococcus aureus, VGH8445, 18 h, 35° C., read-out: MIC
In short: as §1

[24] = system: Staphylococcus aureus VGH 84-46; conditions: Staphylococcus aureus, VGH8446, 18 h, 35° C., read-out: MIC
In short: as §1

[25] = system: Staphylococcus epidermidis CMC 83-135; conditions: CMC83135, 18 hours, 35° C., read-out: MIC
In short: as §1

[26] = system: Staphylococcus epidermidis IO 83-58; conditions: IO8358, 18 hours, 35° C., read-out: MIC
In short: as §1

[27] = system: Staphylococcus epidermidis VGH 84-40; conditions: VGH8440, 18 hours, 35° C., read-out: MIC
In short: as §1

[28] = system: Streptococcus faecalis ATTC 29212; conditions: Enterococcus faecalis, ATTC29212, 18 hours, 35° C., read-out: MIC
In short: as §1

[29] = system: Streptococcus faecalis VGH 84-65; conditions: Enterococcus faecalis, VGH8465, 18 h, 35° C., read-out: MIC
In short: as §1

| SMILES | MIC [1] | MIC [2] | MIC [3] | MIC [4] | MIC [5] | MIC [6] | MIC (Escherichia coli NAR 311) | MIC [7] | MIC [8] | MIC (Klebsiella pneumoniae AD) | MIC [9] | MIC [10] | MIC [11] | MIC [12] | MIC [13] | MIC [14] | MIC [15] | MIC [16] | MIC [17] | MIC [19] | other results |
| --- | --- | --- | --- | --- | --- | --- | --- | --- | --- | --- | --- | --- | --- | --- | --- | --- | --- | --- | --- | --- | --- |
| CCn1cc(C(=O)O)c(=O)c2cc(F)c(N3CCNC(c4sc5ccccc5c4C)C3)cc21 (stereo not shown) [Example 22, 1-Ethyl-6-fluoro-1,4-dihydro-7-[3-(3-methylbenzo[b]-thien-2-yl)-1-piperazinyl]-4-oxo-3-quinolinecarboxylic acid] | > 256 µg/mL | > 256 µg/mL | > 256 µg/mL | > 256 µg/mL | > 256 µg/mL | > 256 µg/mL | > 256 µg/mL | > 256 µg/mL | > 256 µg/mL | > 256 µg/mL | > 256 µg/mL | 256 µg/mL (≈ 550 µM) | 256 µg/mL (≈ 550 µM) | 256 µg/mL (≈ 550 µM) | > 256 µg/mL | > 256 µg/mL | > 256 µg/mL | > 256 µg/mL | 32 µg/mL (≈ 68.7 µM) | 4 µg/mL (≈ 8.59 µM) | MIC [18]: 4 µg/mL (≈ 8.59 µM); MIC [20]: 0.5 µg/mL (≈ 1.07 µM); MIC [21]: 4 µg/mL (≈ 8.59 µM); MIC [22]: 2 µg/mL (≈ 4.3 µM); MIC [23]: 2 µg/mL (≈ 4.3 µM); MIC [24]: 2 µg/mL (≈ 4.3 µM); MIC [25]: 2 µg/mL (≈ 4.3 µM); MIC [26]: 8 µg/mL (≈ 17.2 µM); MIC [27]: 0.5 µg/mL (≈ 1.07 µM); MIC [28]: 256 µg/mL (≈ 550 µM); MIC [29]: 256 µg/mL (≈ 550 µM) |
| CCCCCCCCCCCCOCC1CN(c2cc3c(cc2F)c(=O)c(C(=O)O)cn3CC)CCN1C (stereo not shown) [Example 75, 7-[3-[(Dodecyloxy)methyl]-4-methyl-1-piperazinyl]-1-ethyl-6-fluoro-1,4-dihydro-4-oxo-3-quinolinecarboxylic acid] | > 256 µg/mL | > 256 µg/mL | > 256 µg/mL | > 256 µg/mL | > 256 µg/mL | > 256 µg/mL | > 256 µg/mL | > 256 µg/mL | > 256 µg/mL | > 256 µg/mL | > 256 µg/mL | > 256 µg/mL | > 256 µg/mL | > 256 µg/mL | > 256 µg/mL | > 256 µg/mL | > 256 µg/mL | > 256 µg/mL | > 256 µg/mL | > 256 µg/mL | MIC [20]: > 256 µg/mL; MIC [21]: > 256 µg/mL; MIC [22]: > 256 µg/mL; MIC [23]: > 256 µg/mL; MIC [24]: > 256 µg/mL; MIC [25]: > 256 µg/mL; MIC [26]: > 256 µg/mL; MIC [27]: > 256 µg/mL; MIC [28]: > 256 µg/mL; MIC [29]: > 256 µg/mL |
| CCCCCCOCC1CN(c2cc3c(cc2F)c(=O)c(C(=O)O)cn3CC)CCN1C (stereo not shown) [Example 78, 1-Ethyl-6-fluoro-7-[3-[(hexyloxy)methyl]-4-methyl-1-piperazinyl]-1,4-dihydro-4-oxo-3-quinolinecarboxylic acid] | 64 µg/mL (≈ 143 µM) | 64 µg/mL (≈ 143 µM) | 64 µg/mL (≈ 143 µM) | 32 µg/mL (≈ 71.5 µM) | 32 µg/mL (≈ 71.5 µM) | 32 µg/mL (≈ 71.5 µM) | 256 µg/mL (≈ 572 µM) | 16 µg/mL (≈ 35.8 µM) | 64 µg/mL (≈ 143 µM) | 64 µg/mL (≈ 143 µM) | 64 µg/mL (≈ 143 µM) | 32 µg/mL (≈ 71.5 µM) | 32 µg/mL (≈ 71.5 µM) | 64 µg/mL (≈ 143 µM) | > 256 µg/mL | > 256 µg/mL | > 256 µg/mL | > 256 µg/mL | 8 µg/mL (≈ 17.9 µM) | 4 µg/mL (≈ 8.94 µM) | MIC [20]: 1 µg/mL (≈ 2.23 µM); MIC [21]: 4 µg/mL (≈ 8.94 µM); MIC [22]: 8 µg/mL (≈ 17.9 µM); MIC [23]: 8 µg/mL (≈ 17.9 µM); MIC [24]: 4 µg/mL (≈ 8.94 µM); MIC [25]: 4 µg/mL (≈ 8.94 µM); MIC [26]: 8 µg/mL (≈ 17.9 µM); MIC [27]: 2 µg/mL (≈ 4.47 µM); MIC [28]: 16 µg/mL (≈ 35.8 µM); MIC [29]: 16 µg/mL (≈ 35.8 µM) |
